Measured values as given in patent publication US7989466B2, “Methods to inhibit or augment an inflammatory response” (Cambridge Enterprise Limited, priority 1999, dated 2011).
Like-named read-outs stand apart in the source and are kept apart here.

Legend:
[1] = test system: SDF-1α induced THP-1 migration; experiment: THP-1 trans-well migration assay, SDF-1α as chemoattractant; assay type: cell-based, human; settings: for EC50: read-out: ED50 versus SDF-1α, inhibition of THP-1 migration
Experimental: (§1) To determine whether an agent inhibits a chemokine-induced activity, such as macrophage recruitment, varying amounts of the agent are mixed with cells in the presence of a known chemoattractant. For example, a range of known concentrations of an agent, e.g., a chemokine peptide, is incubated with a defined number (e.g., 10^4-10^6) of human THP-1 monocyte cells in individual wells of the top compartment of a trans-well plate. Chemokine (such as MCP-1, MIP1α, IL8 or SDF-1α), at a concentration known to cause significant migration of THP-1 cells in the trans-well migration assay, is placed in the lower compartment (FIG. 1). Cells are then incubated at 37° C. for a period sufficient to allow migration, e.g., 4 hours. After incubation, the cells are gently removed from the top of the filter with a pipette, 20 μl of 20 mM EDTA in simple PBS is added into each top well, and incubated for 20 minutes at 4° C. The filter is carefully flushed with media using a gentle flow, and removed. A standard curve consisting of a two-fold dilution series of THP-1 cells (in 29 μl) is prepared to accurately quantify the number of cells that have migrated. Migrated cells are stained with 3 μl of MTT stock dye solution which is added directly into each well (5 mg/ml in RPMI-1640 without phenol red, Sigma Chemical Co.) and incubated at 37° C. for 4 hours. The media is carefully aspirated from each well, and the converted dye is solubilized by 20 μl of DMSO. Absorbance of converted dye is measured at a wavelength of 595 nm using an ELISA plate reader. The number of migrated cells in each well is then determined by interpolation of the standard curve (see also Imai et al., J. Biol. Chem., 272, 15036 (1997)).
(§2) For this assay, THP-1 cells were maintained at a density of 4×10^5 cells per ml in RPMI-1640 supplemented with 10% fetal calf serum+20 μM 2-mercaptoethanol. Chemotaxis was induced in a 96-well disposable chemotaxis chamber fitted with a […] polycarbonate filter (PVP free, ChemoTX, Neuroprobe Inc., Cabin John). Twenty-nine μl of chemoattractant (recombinant human chemokine; 50 ng/ml, i.e., 5.9 nM) or control (100 ng/ml TGFβ) was added to the lower compartment of each well. The framed filter was aligned with the holes in the corner of the filter frame and placed over the wells. Five×10^4 THP-1 cells in 25 μl of RPMI-1640 were added to the upper compartment. Peptides were dissolved in Milli Q water and then serially diluted in culture medium. In most cases, the serially diluted peptides were added to the upper compartment of the chemotaxis chamber. The chamber was incubated at 37° C. in a humidified atmosphere of 5% CO2 for 4 hours.
(§3) After incubation, the cells were gently removed from the top of the filter with a pipette, 20 μl of 20 mM EDTA in PBS was added into each top well, and the mixture was incubated for 20 minutes at 4° C. The filter was then carefully flushed with media using a gentle flow, and removed. A standard curve was prepared to accurately quantify the number of THP-1 cells that had migrated. The curve was based on a two-fold dilution series of THP-1 cells (top standard 100,000 cells in 29 μl). Cells which had migrated, and in separate wells, the cells in the standards, were stained with 3 μl of MTT stock solution which was added directly into each well (5 mg/ml in RPMI 1640 without phenol red, Sigma Chemical Co.) and incubated at 37° C. for 4 hours. The media was carefully aspirated from each well, and the converted dye was solubilized by 20 μl of DMSO. Absorbance of converted dye was measured at a wavelength of 595 nm using an ELISA plate reader. The number of cells that had migrated in each well was determined by interpolation of the standard curve.

[2] = test system: IL8 induced THP-1 migration; experiment: THP-1 trans-well migration assay, IL-8 as chemoattractant; assay type: cell-based, human; settings: n.s. = no statistically significant inhibition (p > 0.05); for EC50: read-out: ED50 versus IL8, inhibition of THP-1 migration
Experimental: as §1, §2, §3

[3] = test system: TGFβ1 induced THP-1 migration; experiment: THP-1 trans-well migration assay, TGFβ1 as non-chemokine control; assay type: cell-based, human; settings: n.s. = no statistically significant inhibition (p > 0.05)
Experimental: Any method suitable for counting cells can be used, for example, counting with a hemocytometer, incubation of the cells with MTT (see above), or FACS analysis. A negative control assay is also performed, using TGF-β or another non-chemokine chemoattractant (e.g., IL1β or TNFα). To assess whether the agent is cytotoxic, the same concentrations of agent are incubated with THP-1 cells. Agents which 1) are not cytotoxic at levels which inhibit migration, 2) are ineffective at inhibiting the negative control-induced migration, and 3) reduce or inhibit chemokine-induced THP-1 migration, are agents which fall within the scope of the invention.
Chemotaxis was induced in a 96-well disposable chemotaxis chamber fitted with a […] polycarbonate filter (PVP free, ChemoTX, Neuroprobe Inc., Cabin John). […] The framed filter was aligned with the holes in the corner of the filter frame and placed over the wells. […] Peptides were dissolved in Milli Q water and then serially diluted in culture medium. In most cases, the serially diluted peptides were added to the upper compartment of the chemotaxis chamber. The chamber was incubated at 37° C. in a humidified atmosphere of 5% CO2 for 4 hours.
After incubation, the cells were gently removed from the top of the filter with a pipette, 20 μl of 20 mM EDTA in PBS was added into each top well, and the mixture was incubated for 20 minutes at 4° C. The filter was then carefully flushed with media using a gentle flow, and removed. […] The curve was based on a two-fold dilution series of THP-1 cells (top standard 100,000 cells in 29 μl). […] The media was carefully aspirated from each well, and the converted dye was solubilized by 20 μl of DMSO.

[4] = test system: chemokine-induced THP-1 migration; experiment: THP-1 trans-well migration assay, panel of chemokines (MCP-1, MIP1α, IL-8, SDF1α); assay type: cell-based, human; settings: for CC SPECIFICITY: average inhibitory ED50 versus SDF1 and IL8 divided by average inhibitory ED50 versus MCP-1 and MIP1α; for Chemokine antagonist: active against at least one of IL-8, SDF-1α, MCP-1, MIP1α
[5] = test system: MIP1α induced THP-1 migration; experiment: THP-1 trans-well migration assay, MIP1α as chemoattractant; assay type: cell-based, human; settings: for EC50: n.s. = no statistically significant inhibition (p > 0.05), read-out: ED50 versus MIP1α, inhibition of THP-1 migration
Experimental: as §1, §2, §3

[6] = test system: MCP-1 induced THP-1 migration; experiment: THP-1 trans-well migration assay, MCP-1 as chemoattractant; assay type: cell-based, human; settings: agent with the cells in the upper compartment, n.s. = no statistically significant inhibition (p > 0.05); for EC50: read-out: ED50 versus MCP-1, inhibition of THP-1 migration
Experimental: as §1, §2, §3

[7] = molecular target: T1, Duffy Antigen Receptor for Chemokines (DARC) (Homo sapiens, UniProt Q16570); experiment: DARC binding: competition with 125I-MCP-1 on red blood cells
T1 sequence (Q16570 1-336): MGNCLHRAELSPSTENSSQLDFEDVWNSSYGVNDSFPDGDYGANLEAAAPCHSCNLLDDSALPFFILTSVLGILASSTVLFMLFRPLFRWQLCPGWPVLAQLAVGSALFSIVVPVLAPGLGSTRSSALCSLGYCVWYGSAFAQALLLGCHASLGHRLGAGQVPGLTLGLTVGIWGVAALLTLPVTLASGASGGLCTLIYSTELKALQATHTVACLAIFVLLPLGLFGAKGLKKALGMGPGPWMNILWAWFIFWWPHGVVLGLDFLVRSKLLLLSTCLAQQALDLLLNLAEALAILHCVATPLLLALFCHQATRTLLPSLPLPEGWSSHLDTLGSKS

[8] = molecular target: T2, Recombinant human latent TGF-β1 (Homo sapiens, UniProt P01137); experiment: Latent TGF-β1 activation ELISA (R2X capture); assay type: biochemical; set-up: key: −: A minus indicates no detectable activity in the assay; +: The number of pluses is a qualitative indicating of the activity of each peptide in each assay; ++: The number of pluses is a qualitative indicating of the activity of each peptide in each assay; +++: The number of pluses is a qualitative indicating of the activity of each peptide in each assay; ++++: The number of pluses is a qualitative indicating of the activity of each peptide in each assay; +++++: The number of pluses is a qualitative indicating of the activity of each peptide in each assay; settings: test peptide at 100 nM, 37° C., 90 minutes
T2 construct: purchased R&D Systems; host or cells: CHO cells
T2 sequence (P01137 30-278 limits assumed): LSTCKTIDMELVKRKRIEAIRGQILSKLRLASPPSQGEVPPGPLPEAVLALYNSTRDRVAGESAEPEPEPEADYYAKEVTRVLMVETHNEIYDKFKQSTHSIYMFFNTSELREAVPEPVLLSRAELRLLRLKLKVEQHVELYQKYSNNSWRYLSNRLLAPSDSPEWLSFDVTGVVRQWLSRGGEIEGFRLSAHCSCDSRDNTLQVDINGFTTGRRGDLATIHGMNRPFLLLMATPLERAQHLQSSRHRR
Experimental: To test whether a KXK tripeptide activates TGF-beta, a direct ELISA-type assay can be used. Recombinant human latent TGF-β1 produced in CHO cells (R&D Systems) was incubated with the test activator. For example, 200 ng of latent TGF-β1 (at 20 μg/ml) was incubated with test peptide at 100 nM final concentration at 37° C. for 90 minutes. Following incubation, the TGF-β is incubated with the recombinant extracellular domain of the Type II TGF-β receptor (R2X) which binds only the active and not the latent forms of TGF-β1 (Clin. Chim. Acta, 235, 11 (1995)). For example, 1 μg of purified R2X is coated onto a Maxisorp ELISA plate well in 50 μl of 100 mM sodium carbonate for 2 hours at 4° C., and non-specific protein binding then blocked incubation with 5% sucrose 5% Tween-20 in Tris-buffered saline for 1 hour at room temperature.
The TGF-β sample is then incubated with the coated and blocked wells for 2 hours at room temperature with shaking. Wells are washed 3 times quickly with Tris-buffered saline containing 0.05% Tween-20 between each incubation. If any of the latent TGF-β1 has been activated by the incubation with test peptide, it is captured by the R2X, while remaining latent TGF-β1 is washed away. Captured active TGF-β1 is then detected by incubation with a suitable detection agent, such as a peroxidase conjugated polyclonal anti-TGF-beta antibody. For example, the wells are incubated with 200 μl of BDA19 chicken anti-TGF-β1 antibody coupled to horseradish peroxidase for 90 minutes at room temperature with shaking. Any bound peroxidase is then detected using a suitable chromogenic substrate (e.g., K-BLUE TMB substrate solution). The amount of active TGF-β generated is estimated by interpolation of a standard curve constructed using known amounts of active TGF-β1 (R&D Systems).

[9] = n.s. = no statistically significant inhibition (p > 0.05)
[10] = average inhibitory ED50 for inhibition of THP-1 migration induced by each of the chemokines, read-out: AVERAGE ED50
[11] = tripeptide at 100 μM, mean ± range, dash = no statistically significant reduction in migration
[12] = footnote f, KQK MCP-1, SEE MIP1α, KLK SDF1, KEN IL8, read-out: ED50 of a tripeptide against the one chemokine it is highly specific for

Row | EC50 [5] [µM] | TGF-beta Activator [8] | Substance | ED50 versus TGFβ1, inhibition of THP-1 migration [3] | Chemokine antagonist [4] | also measured
1 | 6 |  | EICADPSQKWVQ [Ser7peptide 3] | n.s. |  | EC50 [1, 9]: 4 µM; EC50 [2]: 3 µM; EC50 [4, 10]: 5 µM; CC SPECIFICITY [4]: 0.5; EC50 [6]: 7 µM
2 | 1 |  | EICLDPKQKWIQ [Leu4Ile11peptide 3] | n.s. |  | EC50 [1, 9]: 3 µM; EC50 [2]: 3 µM; selectivity for receptors on THP-1 cells over DARC [7]: at least 20 fold; more potent as an inhibitor of CC chemokines than peptide 3(1-12)[MCP-1] [4]: approximately 5 fold; EC50 ([4]; average inhibitory ED50 for inhibition of THP-1 migration induced by each of the chemokines, listed as Leu4Ile11peptide 3(1-12)[MCP-1], read-out: AVERAGE ED50): 2.3 µM; CC SPECIFICITY [4]: 2.0; EC50 ([6]; listed as Leu4Ile11peptide 3(1-12)[MCP-1]): ~1 µM; EC50 [6]: 2 µM
3 | 7 |  | EICLDPKQKWVQ [Leu4peptide 3] | n.s. |  | EC50 [1, 9]: 3 µM; EC50 [2]: 3 µM; increase in potency as an inhibitor of CXC chemokines compared with peptide 3(1-12)[MCP-1] [4]: approximately 4 fold; EC50 [4, 10]: 5 µM; EC50 [6]: 8 µM
4 |  | − | KDK |  | + | 
5 |  | − | KEK |  | + | 
6 |  | ++++ | KFK |  | − | 
7 |  | − | KGK |  | − | 
8 |  | ++ | KIK |  | ++ | 
9 |  | − | KKK |  | ++++ | 
10 |  | +++ | KLK |  | ++++ | percentage inhibition of migration induced by SDF1α [1, 11]: 87 ± 6%; CC SPECIFICITY [4]: <0.1; EC50 [4, 12]: 0.1 to 10 µM
11 | 5 |  | KQKWVQ [Peptide 3[7-12]] | n.s. |  | EC50 [1, 9]: 6 µM; EC50 [2]: 6 µM; EC50 ([4]; THP-1 migration, read-out: ED50 range, migration by all chemokines tested): 7 to 9 µM; EC50 [6]: 7 µM
12 |  | − | KSK |  | − | 
13 |  | − | KTK |  | − | 
14 |  | − | KWK |  | − | 
15 |  | +++++ | KYK |  | − | 

Row | Substance | EC50 [5] [µM] | TGF-beta Activator [8] | ED50 versus TGFβ1, inhibition of THP-1 migration [3] | Chemokine antagonist [4] | also measured
16 | SEE | 6 |  | n.s. |  | ED50 versus SDF-1α, inhibition of THP-1 migration [1, 9]: n.s.; ED50 versus IL8, inhibition of THP-1 migration [2]: n.s.; specificity for the cognate chemokine over all the other chemokines tested ([4]; KQK MCP-1, SEE MIP1-α): > 100 fold; CC SPECIFICITY [4]: >100; EC50 [4, 12]: 0.8 µM; percentage inhibition of migration induced by MIP1α [5, 11]: 65 ± 3%; ED50 versus MCP-1, inhibition of THP-1 migration [6]: n.s.
